The source made the active and inactive calls.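 Rule for the calls: active = compounds giving half or more protection of infected cells from virus-caused growth loss, again on retest; inactive = the rest.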
Test system: CEM cells HIV-1 protection, formazan growth assay
Assay: NCI AIDS Antiviral Assay
Details: for IC50: measured here: growth of uninfected CEM cells
In short: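 Protection of CEM cells against HIV-1 was scored from cell growth (soluble formazan) across five concentrations, with parallel uninfected cells. Lack of protection may reflect toxicity.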

| Compound | outcome | EC50 | IC50 |
| --- | --- | --- | --- |
| S=c1c2ccccc2c(=S)n2n1CC=CC2 | inactive |  |  |
| COCC(OC)C(CC=C(C#N)C#N)OC (stereo unspecified) |  | > 44.7 µM | > 44.7 µM |
| CCOC(=O)C1(C(=O)OCC)CC=C(C)CC12C(=O)Nc1ccccc12 (stereo unspecified) |  | > 72.4 µM | > 72.4 µM |
| O=C(Cn1ccnc1[N+](=O)[O-])c1ccc(F)cc1 |  | > 724 µM | 339 µM |
| S=C1SC(c2ccc(Cl)cc2)(c2ccc(Cl)cc2)c2ccccc21 |  | > 200 µM | 123 µM |
| CCOC(=O)NC(=O)c1cn(C2OC(CO)C(O)C2O)c(=O)[nH]c1=O (stereo unspecified) |  | > 692 µM | > 692 µM |
| OC12CCCCCC1(N1CCOCC1)c1ccccc12 (stereo unspecified) |  | > 200 µM | > 200 µM |
| CC(C)(C)N=NC(C)(C)N=C=O |  | > 251 µM | > 251 µM |
| Cc1ccc(/C=C/C(=O)c2c([O-])on[n+]2-c2ccccc2)cc1 |  | > 200 µM | 2.63 µM |
| O=c1ccn2c(n1)OC1C(O)C(CO)OC12 (stereo unspecified) |  | > 200 µM | > 200 µM |
| CC(=O)C1(N=Nc2ccc(S(=O)(=O)Nc3nccc(C)n3)cc2)CCOC1=O (stereo unspecified) |  | > 200 µM | > 200 µM |
| O=c1c2cc(Cl)ccc2sc2cccc(Cl)c12 |  | > 1.35 µM | > 1.35 µM |
| Clc1ccc(C2=Nc3ccccc3SC(c3ccc(Cl)c(Cl)c3)C2)c(Cl)c1 (stereo unspecified) |  | > 15.8 µM | > 15.8 µM |
| N#Cc1ccccc1NC1OCC(O)C(O)C1O (stereo unspecified) | inactive |  |  |
| O=C1CCC2(c3ccccc3)Nc3ncccc3N12 (stereo unspecified) |  | > 200 µM | > 200 µM |
| Cc1ccc(C2SCC(=O)N2c2ccc(-c3ccc(-n4c(-c5ccccc5)nc5ccccc5c4=O)cc3)cc2)cc1 (stereo unspecified) |  | > 191 µM | 35.5 µM |
| CCOC(=O)C1Cc2c([nH]c(=O)[nH]c2=O)OC1c1ccc([N+](=O)[O-])cc1 (stereo unspecified) |  | > 363 µM | > 363 µM |
| Cc1cc(C)c2c(c1)C/C(=C\c1ccccc1C(=O)O)C2=O | inactive |  |  |
| O=C(c1cccs1)N(C(=S)OCc1ccccn1)c1ccccc1 |  | > 200 µM | 79.4 µM |
| C/C(=N\Nc1ccc2ccccc2n1)c1ccccc1O |  | > 200 µM | 6.46 µM |
| COC(=O)C1=C(OC(C)=O)c2ccccc2CS1 |  | > 135 µM | 123 µM |
| COc1cc(C2SC(N)=Nc3c2c(C)nn3C(=O)Cc2ccccc2)cc(OC)c1OC (stereo unspecified) |  | 49 µM | > 200 µM |
| O=C(OCc1ccccc1)N(CCCCN(CCCNC(=O)C(F)(F)F)C(=O)OCc1ccccc1)CCCNC(=O)C(F)(F)F | inactive |  |  |

| Compound | outcome | EC50 | IC50 |
| --- | --- | --- | --- |
| CCCOC(=O)c1ccc(N)cc1 |  | > 200 µM | > 200 µM |
| Cc1ccc(/C=N/NC2=NCCN2)s1 |  | > 200 µM | 166 µM |
| Cc1cn2c(nc1=O)OC1C(O)C(CCl)OC12 (stereo unspecified) |  | > 200 µM | > 200 µM |
| CC(=O)NC(CCCN)C(=O)NCc1ccccc1 (stereo unspecified) |  | > 955 µM | > 955 µM |
| CCOC(=O)N1CCc2cc(OC)c(OC)c3c2C1CC3=O (stereo unspecified) | inactive |  |  |
| Nc1nc(=O)n(C2CC(O)C(CO)O2)c2nc(-c3ccc(-c4ccccc4)cc3)cnc12 (stereo unspecified) |  | > 200 µM | > 200 µM |
| CCCC(=O)OCC1=CCC2c3c(c4ccccc4n3C)CC1N2Cc1ccccc1 (stereo unspecified) |  | > 21.4 µM | 3.8 µM |
| Cc1cc2occ(C)c(=O)c2c2c1OC(C)(C)S2 |  | > 100 µM | 51.3 µM |
| O=C(Cc1cccs1)N[C@@H]1C(=O)N2C(C(=O)OC(c3ccccc3)c3ccccc3)=C(CO)CS[C@H]12 |  | > 200 µM | 195 µM |
| COC(=O)/C=C/c1cc(OC)c2c(c1)[C@H](C(=O)OC)[C@@H](c1ccc(O)c(OC)c1)O2 |  | > 20 µM | 1.02 µM |
| O=C(N/C(=C\c1ccccc1[N+](=O)[O-])c1nc2ccccc2[nH]1)c1ccccc1 |  | > 49 µM | > 49 µM |
| CC1=CCC(C(C)(C)NC(=O)c2ccccc2)C/C1=N/O (stereo unspecified) |  | > 91.2 µM | > 91.2 µM |
| O=C(/C=C/c1ccco1)N1CCN(Cc2ccccc2)CC1 |  | > 282 µM | 263 µM |
| Cn1c(=O)[nH]c2nncnc2c1=O |  | > 200 µM | 31.6 µM |
| CCOP(=O)(OCC)/C(C#N)=C/c1c(C)[nH]c2ccccc12 |  | > 200 µM | 158 µM |
| Nc1cc2cc([N+](=O)[O-])ccc2oc1=O |  | > 178 µM | > 178 µM |
| O=CNc1cccc2c(=O)[nH][nH]c(=O)c12 |  | > 126 µM | > 126 µM |
| CCOC(=O)/C(O)=C(/C=NC(=S)c1ccncc1)C(=O)OCC |  | > 200 µM | > 200 µM |
| O=Cc1cc(C(=O)Nc2ccc(/C=C/c3ccc(NC(=O)c4cc(C=O)c5cccnc5c4O)cc3S(=O)(=O)O)c(S(=O)(=O)O)c2)c(O)c2ncccc12 |  | 24.5 µM | > 100 µM |
| Cc1cc(C=O)c(C)c2c1[nH]c1ccccc12 |  | > 200 µM | 7.59 µM |
| O=C(O)C1=CC=CC(=C(c2ccc(O)c(C(=O)O)c2)c2ccc(O)c(C(=O)O)c2)C1=O |  | > 380 µM | > 380 µM |
| COc1cc(C2OCC3C(c4ccc(O)c(OC)c4)OCC23)ccc1O (stereo unspecified) | inactive |  |  |
| COC(=O)CCC(C)C1CCC2C3CCC4CC5CCC4C3(CO5)C(=O)C(Br)C12C (stereo unspecified) |  | > 10.7 µM | > 10.7 µM |

| Compound | outcome | EC50 | IC50 |
| --- | --- | --- | --- |
| N#Cc1c(N2CCCC2)ncn(Cc2ccccc2)c1=S |  | > 200 µM | > 200 µM |
| C/C(N=NS(=O)(=O)c1ccc([N+](=O)[O-])cc1)=C1\C=CC=CN1O | inactive |  |  |
| Clc1ccccc1C(=Nc1ccccc1)C(=Nc1ccccc1)c1ccccc1Cl |  | > 1.74 µM | > 1.74 µM |
| O=P(Nc1ccccc1)(Nc1ccccc1)Nc1ccccc1 |  | > 155 µM | 141 µM |
| CC(C)c1c(Cc2ccccc2)n(COCCC[Se]c2ccccc2)c(=O)[nH]c1=O |  | 0.0501 µM | 1.38 µM |
| COc1cc2c(c(C(C)(C)C)c1)OC1(O)C2=CC(=O)C=C1C(C)(C)C (stereo unspecified) |  | > 20 µM | 0.372 µM |
| C[C@]12C[C@H](c3ccccc3)Nc3ccccc3N1C(c1ccccc1)=NO2 |  | > 200 µM | 36.3 µM |
| O=C1C[C@@H](Sc2ccccc2)C2(OCCO2)C2ON3CCCC[C@H]3[C@H]12 (stereo partly specified) |  | > 200 µM | 1.82 µM |
| CCOC(=O)c1nc2ccccc2nc1Oc1ccc(C(=O)OC)cc1 |  | > 200 µM | > 200 µM |
| CN1C[C@H]2[C@@H](C1=O)[C@H](c1ccccc1)ON2C |  | > 200 µM | > 200 µM |
| O=c1cc(-c2ccccc2)c2cc3c(=O)ccoc3cc2o1 |  | > 3.47 µM | > 3.47 µM |
| CCc1nc2ccc(N=NN(C)C)cc2[nH]1 |  | 85.1 µM | 107 µM |
| CCOC(=O)CSc1c([N+](=O)[O-])ncn1C |  | > 1020 µM | 170 µM |
| O=P1(CCc2ccc(Cl)cc2)CC(Br)C(Br)C1 (stereo unspecified) |  | > 631 µM | 38 µM |
| O=Cc1[nH]c(=O)[nH]c(=O)c1C(=O)O |  | > 200 µM | > 200 µM |
| CC12CC/C(=N/NC(N)=O)C3C1CCCC32 | inactive |  |  |
| O=C(O)Cn1c(=O)[nH]c(=O)c2[nH]cnc21 |  | > 1200 µM | > 1200 µM |
| CCOC(=O)c1nc2ccc(C(F)(F)F)cc2nc1NCc1ccc(F)cc1 |  | > 200 µM | 23.4 µM |
| O=C1c2ccccc2C(=O)N1C/C=N/NS(=O)(=O)c1ccc2ccccc2c1 |  | > 240 µM | > 240 µM |
| CCC(C)C(NC(=O)c1ccccc1SC(=O)CCCC[n+]1ccccc1)C(=O)O (stereo unspecified) |  | 23.4 µM | > 200 µM |
| O=S(OCC1COS(=O)O1)OCC1COS(=O)O1 (stereo unspecified) |  | > 776 µM | 77.6 µM |

From PubChem BioAssay AID179 (DTP/NCI, 2004)
